The text below walks through data of patent US8965708B2, “Method for the treatment of acquired lymphedema” (The Board of Trustees of the Leland Stanford Junior …, priority 2006, dated 2015).

A short description of data set [1]: Log Kow. The format is physicochemical.
A short description of data set [2]: Permeation through the stratum corneum of human cadaver skin. The note with it: cumulative permeation over time, FIG. 33. The format is in vitro ADME. The text has this: FIG. 33. Ketoprofen chemistry. (A) Chemical formula of ketoprofen. (B) Ester modification to improve bioavailability. […] Closed triangles: Methyl ester. Open circles: ethyl ester. Open squares: isopropyl ester. x axis=time in hours.

Data set [3] deals with tail lymphedema in SKH-1 mice. Kind of data set: Tail volume quantitation, NSAID / sTNF-R1 treatment (Example 4). The format is in vivo, mouse. Here is the method: Tail lymphedema was induced in female hairless, immunocompetent SKH-1 mice (Charles River Laboratories, Boston, Mass.) as described. The mice were anesthetized with a solution of ketamine, xylazine, and saline (0.07 ml i.p.). The skin of the tail was circumferentially incised 16 mm distal to its base. The major lymphatic trunks were identified by subcutaneous injection of methylene blue distal to the incision and ablated by limited cautery. The mice were carefully monitored for any visceral signs of distress. Sham surgery controls were treated identically, but without lymphatic cautery. […] All mice were sacrificed in accordance with American Veterinary Medical Association guidelines for rodent euthanasia after day 11 days of observation. After sacrifice, 500 mg sections of the tail were harvested for paraffin embedding and RNA extraction. For all in vivo experiments, housing, husbandry and experimentation were in strict accordance with the Animal Welfare Act and the Guide for the Care and Use of Laboratory Animals.
Sham surgery and normal controls were treated identically with the NSAID (n=8 per group), sTNF-R1 (n=11 per group), or PBS (n=11 normal controls, n=8 sham surgery controls).
Tail volume was measured serially in each mouse, using a digital photographic application of the truncated cone approximation as described.

Data set [4] relates to TNF-α, MCP-1, VEGF-C, VEGF-D, VEGFR-3, Prox1, LYVE-1 expression. Briefly: Targeted gene expression analysis by quantitative real-time RT-PCR in tail skin. The format is in vivo, mouse. The method, then:
Primers and probes were from Assays-on-Demand (Applied Biosystems, Foster City, Calif.). cDNA was synthesized from 5 μg of total RNA with Taqman reverse-transcription reagents (Applied Biosystems) and amplified in triplicate at 50° C. for 2 minutes and 95° C. for 10 minutes, followed by 40 cycles of 95° C. for 15 seconds and 60° C. for 1 minute. Reactions without template and/or enzyme were used as negative controls. 18S ribosomal RNA served as an internal control. A standard curve derived from embryonic mouse RNA was plotted for each target gene by linear regression using SPSS software (v. 11.0, Applied Biosystems). RNA quantity was expressed relative to the corresponding 18S control. Fold differences were calculated by dividing the experimental results by the pooled normal results and were plotted on a log 10 scale.

The subject of data set [5] is cytokine levels in tail skin. Kind of data set: Tissue cytokine assays (Luminex) in tail skin homogenates. The format is in vivo, mouse. Here is the method: Cytokine levels in tail skin were measured in normal controls and mice with untreated, NSAID-treated, and sTNF-R1-treated lymphedema (n=3 per group) sacrificed on postoperative day 7. The Luminex LabMap200 System was used to measure the levels of 42 cytokines from the supernatant of tissue homogenates. Multiplex cytokine kits were purchased from Panomics (Fremont, Calif.), and the assay was performed according to the manufacturer's recommendation with the following modifications: 25-50 μl of samples, standards, and controls were added in duplicate to 96-well filter plates pre-configured with a panel of anti-cytokine antibodies covalently linked to unique polystyrene beads. The plate was incubated overnight at 4° C. in the dark with shaking at 500 rpm, vacuum aspirated, and washed three times with 140 μl of wash buffer to remove unbound antigen. Biotinylated detection antibody solution (25 μl) was added to each well and incubated for 1 hour with shaking at 500 rpm at room temperature. The plate was incubated with 50 μl of streptavidin-phycoerythrin for 35 minutes and then with 120 μl of reading buffer for 3 minutes at room temperature with shaking. After laser excitation, digital images of the bead array were captured with a CCD camera and analyzed on a computer workstation with BeadView software.

Data set [6] has as its system tail lymphedema in SKH-1 mice. Kind of data set: Histology and histomorphometric quantitation of epidermal thickness (Example 4). The format is in vivo, mouse. The note with it: for histological changes in mice with lymphedema: hematoxylin/eosin. The method, then: Immediately after sacrifice, 0.5-g sections of tail were harvested for histological analysis and RNA extraction. Sections extended from a point 4 mm proximal to the surgical incision to 8 mm beyond it. The specimens were fixed overnight in 4% paraformaldehyde, embedded in paraffin, cut into 5-μm sections, stained with hematoxylin and eosin (Richard-Allan Scientific, Kalamazoo, Mich.), and examined by light microscopy.
Epidermal thickness was measured serially using digital images of histology slides stained with hematoxylin and eosin. Processing and analysis were performed using Adobe Photoshop CS4 and ImageJ (http://rsbweb.nih.gov/ij) as previously described with modifications (Sanders J E, et al. Comput Methods Programs Biomed. 1999; 59:167-180). Quantitative measurements were imported to Prism 5 software (GraphPad Software Inc., La Jolla, Calif.) for statistical analysis and graphing.

The subject of data set [7] is post-surgical lymphedema in the tails of SKH-1 mice. Kind of data set: Histology of tail sections (H&E), VEGF-C study. The format is in vivo, mouse. The note with it: day 11. An excerpt:
For histological evaluation, 11 mice were sacrificed on Day 11 of observation. Immediately following sacrifice, 0.5 gm sections of the tail were harvested. Sections extended from a point 4 mm proximal to the surgical incision to 8 mm beyond it. The specimens were fixed overnight in 4% paraformaldehyde. After paraffin embedding, 5 μm sections were stained with hematoxylin and eosin (H&E, Richard-Allan Scientific). After deparaffinization in xylene, sections were rehydrated though a series of graded alcohol steps starting with 100% EtOH and ending in 50% EtOH. Slides remained in toluidine blue for 2 minutes and were then dehydrated through graded alcohol washes and covered with Cytoseal (Richard Allan Scientific).

Data set [8] deals with LYVE-1-positive lymphatic vessels. Briefly: LYVE-1 immunohistochemical staining, lymphatic vessel number and area. The format is in vivo, mouse. The method, then: 5 μm-thick paraffin sections were de-paraffinized in xylene, re-hydrated in a graded series of ethanol, pretreated with target retrieval solution (Dako, Carpinteria, Calif.) in a pressure cooker, and incubated in a peroxidase block for 10 minutes. Sections were then incubated with rabbit polyclonal anti-LYVE-1 antibody (1:200, Upstate Cell Signaling Solutions, Lake Placid, N.Y.) for 1 hour at room temperature, followed by horseradish peroxidase (HRP)-conjugated secondary antibody for 30 minutes at room temperature and detection with DAB for 4 minutes (Envision System Kit, Dako). Tissue sections were counterstained with Gill 1 Hematoxylin (Richard-Allan Scientific, Kalamazoo, Mich.). for 15 seconds, then dehydrated in graded ethanol and coverslipped with CoverSafe (American Master*Tech, Lodi, Calif.).
5 μm-thick paraffin sections were prepared and stained for LYVE-1 as described in example 1, above.
Mean lymphatic vessel number was determined by averaging the number of total lymphatic vessels in all of the fields of each slide at 10× magnification. The observer was blinded to the treatment status of the animal in each case. Lymphedema was characterized by an increase in LYVE-1-positive vessel number/field that was not observed in normals or after VEGF-C-treatment: lymphedema, 7.3±4.0 (P=0.02 compared to normal); VEGF-C, 1.3±0.9 (N.S.); and normal, 1.0±0.8.
Lymphatic vessel area was quantitated according to the formula π·r1·r2. […] Both vessel number and size returned substantially to normal following exogenous administration of recombinant VEGF-C.

The test system of data set [9] is post-surgical lymphedema in the tails of SKH-1 mice. Kind of data set: Tail volume quantitation, VEGF-C in experimental lymphedema (Example 3). The format is in vivo, mouse. Conditions: single subcutaneous dose of 200 ng on post-surgical day 3. Here is the method: Post-surgical lymphedema was experimentally created in the tails of female hairless, immunocompetent SKH-1 mice (Charles River Laboratories, Boston Mass.) as described in example 1, above. Therapeutic VEGF-C lymphangiogenesis in experimental lymphedema. On post-surgical day 3, the treated animal subjects received parenteral recombinant human VEGF-C (R&D Systems Inc., Minneapolis, Minn.). Each animal received a single subcutaneous dose of 200 ng of the growth factor (2 mg/mL), equally divided between the proximal and distal wound edges. Untreated lymphedema subjects received subcutaneous saline analogously administered.
Tail volume was serially quantitated in 19 mice divided into four treatment categories: normal, untreated lymphedema, VEGF-C-treated lymphedema, and surgical sham controls. For animals who had surgical intervention, this was defined to have occurred on day 0. All of the mice had quantitation of baseline tail volume; thereafter, volume was quantitated at defined time points: days 2, 4, 7, 9, 11, 14, 16, 18, 21, 23 28, 35, 42, 50, 57, 63, 65, 67 and 71. […] A single digital image of each tail was recorded with an OLYMPUS D520 Zoom digital camera at 1600×1200SHQ resolution. […] The diameter of the tail was digitally, serially quantitated at distances of 8 mm beginning at the proximal end of the tail. […]

Data set [10] has as its system clearance of luc+ splenocytes from lymphedematous tails of FVB/N mice. Kind of data set: Functional in vivo bioluminescence imaging of immune traffic, VEGF-C study. Set-up: species or system mouse. The method, then: Experimental lymphedema was created surgically in the tails of 20 FVB/N female wild type mice (Jackson Laboratories, […]), using the technique described above, and functionally compared with normal mice (n=8). The lymphedematous mice were treated with human recombinant VEGF-C or with saline, as described above, on post-surgical day 3. For in vivo bioluminescence imaging, spleens from transgenic luc+ heterozygous animals, expressing firefly luciferase under the control of a chicken beta-actin promoter, as previously described (Beilhack et al., 2005; Cao et al., 2004), were placed into single cell suspension. These single cell suspensions consisted of different hematopoietic lineages: ˜40% were CD19+ B cells, ˜20% CD4+ T cells, ˜10-15% were CD8+ T cells, 3% NK1.1+ NK cells and the rest were GR.1+ granulocytes, Mac-1+ macrophages, CD11c+ dendritic cells and rarer cell populations. 4×10^6 splenocytes (>97% CD45+) in PBS were injected in a volume of […] into the tail interstitium/emission]×100%. 1 cm caudal to the site of surgery, in lymphedema mice and normal controls, respectively. […] The efficiency of cellular lymphatic drainage was determined by direct imaging of light emission, with quantitation of the relative change in light emission from that measured at 20 hours after cell injection, as follows: relative photon emission=[emissionday 7/emission20 hours]×100%.

Entries after “also recorded” stand apart in the source; their conditions may differ.

As to `CCOC(=O)C(C)c1cccc(C(=O)c2ccccc2)c1` (centres unmarked) [ketoprofen ethyl ester], the “Log Kow” value in [1] is given as 4.14.
In the case of `CC(C)OC(=O)C(C)c1cccc(C(=O)c2ccccc2)c1` (centres unmarked) [ketoprofen isopropyl ester], the “Log Kow” value in [1] amounted to 4.56.
Consider `COC(=O)C(C)c1cccc(C(=O)c2ccccc2)c1` (centres unmarked) [ketoprofen methyl ester], for which the “Log Kow” value in data set [1] stood at 3.65. For the same molecule, in [2], the “ability to permeate the stratum corneum of human cadaver skin” value was “most penetration”.
Consider pegsunercept [sTNF-R1], for which, in data set [3] (day 7, lymphedema mice, s.c. every other day from day 3), the “tail volume, % of baseline” value is 183.7±26.8%. In addition, the “edematous response (tail volume) of lymphedema mice” value in [3] (lymphedema mice, systemic s.c. treatment) is reported as “significantly more edematous”. For the same molecule, the “effect on tail volume in normal and sham surgery mice” value in [3] (normal and sham surgery mice) is listed as “no discernable effect”. Further, the “expression of other targeted genes (other than TNF-α)” value in [4] (day 11) is “did not affect other genes”. Besides, the “TNF-α expression (mRNA)” value in data set [4] (day 11, lymphedema mice) is given as “reduced TNF-α expression to control levels; also recorded: downregulated”. For the same molecule, in [4] (lymphedema mice), the “VEGF-C expression (mRNA)” value is recorded as “decreased” and the VEGFR-3 expression entry is “decreased”. Moreover, in [5] (postoperative day 7), the “MCP-1 tissue levels (protein)” value was “further increased”, the “MCP-3 tissue levels (protein)” value is “significantly reduced” and the eotaxin tissue levels entry was “decreased”. Moreover, the “MCP-3 tissue levels (protein)” value in data set [5] (postoperative day 7, listed as sTNFR-1) was “inhibited”. In [6] (FIG. 14B), the “epidermal thickness (ET) compared to untreated LY mice” value was “significantly increased”. Also, in data set [6] (day 11), the “epidermal thickness increased, compared to untreated mice with lymphedema” value was 16.0±2.5%. Moreover, the “histological changes in mice with lymphedema” value in data set [6] (day 11, listed as sTNFR1) is “no discernible amelioration”. Also, the “histological changes in mice with lymphedema” value in [6] (day 11, listed as sTNFR-1) is listed as “exacerbates the pathology”.

B1: VEGF-C: parenteral recombinant human VEGF-C (R&D Systems Inc.), growth factor (protein, UniProt P49767 112-227, looked up)
Vascular endothelial growth …: AHYNTEILKSIDNEWRKTQCMPREVCIDVGKEFGVATNTFFKPPCVSVYRCGGCCNSEGLQCMNTSTSYLSKTLFEITVPLSQGPKPVTISFANHTSCRCMSKLDVYRQVHSIIRR
Regarding B1, the “histological pattern of tail tissue” value in data set [7] is given as “substantial reversion to the normal pattern”. The LYVE-1-positive vessel number/field in [8] (10x magnification, day 11) stood at 1.3±0.9. For the same molecule, in data set [8] (formula π·r1·r2, n=3), the “average lymphatic area/field (LYVE-1-positive vessel area)” value worked out at 2992±1311 μm^2. In data set [8] (vs untreated lymphedema), the “size and number of LYVE-1-positive skin lymphatics” value is “reduction in the observed size and number of these skin lymphatics; also recorded: reduction in the number and size of LYVE-1-positive vessels”. The “mean tail volume compared with untreated lymphedema” value in data set [9] is reported as “significant decrease in volume; also recorded: diminution in the mean tail volume; also recorded: volume reduction, compared with untreated lymphedema, was evident by day 7”. Also, the “clearance of bioluminescent immunocytes (immune traffic)” value in data set [10] (day 7 post-injection) is on record as “ameliorated”. For the same molecule, the “relative photon density, % of the observed value 20 hours post-injection” value in data set [10] (day 7 post-injection (post-operative day 14), n=12) is listed as 24±9%.
